Data published in ChEMBL document CHEMBL1201862, “PubChem BioAssay data set” (2004).
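A five-concentration, 48-hour dose response in 96-well plates underlies each endpoint, interpolated linearly between surrounding concentrations. GI50 = concentration required for 50% inhibition of growth.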 The source made the active and inactive calls. Cut-off read from the data, not from the text of the source: active = GI50 up to about 1.1 µM and inactive = higher.

What was measured:
Assay in all cases: DTP human tumour cell line panel, 48 h
DLD-1 = test system: DLD-1
DMS-273 = test system: DMS-273
KM-20L2 = test system: KM-20L2
LXFL 529 = test system: LXFL 529
M19-MEL = test system: M19-MEL
RXF 631 = test system: RXF 631
SNB-78 = test system: SNB-78
DMS-114 = test system: DMS-114
XF498 = test system: XF498

SMILES | GI50 (DLD-1) | GI50 (DMS-273) | GI50 (KM-20L2) | GI50 (LXFL 529) | GI50 (M19-MEL) | GI50 (RXF 631) | GI50 (SNB-78) | GI50 (DMS-114) | GI50 (XF498)
CC(=O)CC[N+](C)(C)C | 10.1 µM (inactive) | 21 µM (inactive) | 25.7 µM (inactive) | 12.9 µM (inactive) | 23.3 µM (inactive) | 28.8 µM (inactive) | 12.5 µM (inactive) |  | 
CCOC(=O)/C(=C\c1ccccc1)C(=O)CCN1CCOCC1 | 2.43 µM (inactive) | 10.4 µM (inactive) | 9.89 µM (inactive) | 1.84 µM (inactive) | 3.62 µM (inactive) | 11.3 µM (inactive) | 11.6 µM (inactive) | 4.92 µM (inactive) | 
O=C1OC2CCCC[C@@H]2C2C[C@]34CCCCC3[C@@H](C(=O)O4)C12 (stereo partly drawn) | > 100 µM (inactive) |  | > 100 µM (inactive) | > 100 µM (inactive) | > 100 µM (inactive) |  | > 100 µM (inactive) | > 100 µM (inactive) | > 100 µM (inactive)
CCCC(=O)c1ccc(=O)n(C)c1 | > 100 µM (inactive) | > 100 µM (inactive) | > 100 µM (inactive) | > 100 µM (inactive) | > 100 µM (inactive) | 88.3 µM (inactive) |  | > 100 µM (inactive) | > 100 µM (inactive)
CC(=O)OCC1OC(NC(=S)N/N=C2\CC(c3ccccc3)Oc3ccccc32)C(OC(C)=O)C(OC(C)=O)C1OC(C)=O (stereo not drawn) | > 100 µM (inactive) | 56.8 µM (inactive) | > 100 µM (inactive) | > 100 µM (inactive) | > 100 µM (inactive) | 32 µM (inactive) | > 100 µM (inactive) | > 100 µM (inactive) | > 100 µM (inactive)
Cc1nn(C(=O)CC(=O)Nc2ccccc2Cl)c(C)c1/N=N/c1ccccc1Cl | > 100 µM (inactive) | > 100 µM (inactive) | > 100 µM (inactive) | > 100 µM (inactive) | > 100 µM (inactive) | > 100 µM (inactive) | 40.9 µM (inactive) | > 100 µM (inactive) | > 100 µM (inactive)
Nc1ccccc1C(=O)CCC1C(=O)NC(=S)NC1=O | > 100 µM (inactive) | > 100 µM (inactive) | > 100 µM (inactive) | > 100 µM (inactive) | > 100 µM (inactive) | > 100 µM (inactive) |  | > 100 µM (inactive) | 
O=C(c1ccc(Cl)cc1)N(C(=S)N1CCN(c2ccccc2)CC1)c1ccccc1 | > 100 µM (inactive) | > 100 µM (inactive) | > 100 µM (inactive) | > 100 µM (inactive) | > 100 µM (inactive) |  | > 100 µM (inactive) |  | 
O=C(CC(=O)C(=O)CC(=O)OCc1ccccc1)OCc1ccccc1 | 60.8 µM (inactive) |  | > 100 µM (inactive) | > 100 µM (inactive) | > 100 µM (inactive) |  |  | > 100 µM (inactive) | 
CC(Cl)(/C=C/Cl)C(Cl)/C=C/C(Cl)(CCl)CBr (stereo not drawn) | 2.47 µM (inactive) | 3.63 µM (inactive) | 5.22 µM (inactive) | 1.22 µM (inactive) | 3.12 µM (inactive) | 1.91 µM (inactive) | 1.75 µM (inactive) | 1.96 µM (inactive) | 
O=C(CC(=O)N1N=C(N2c3ccccc3Sc3ccccc32)CC1c1ccccc1)Nc1ccc(Cl)cc1 (stereo not drawn) | > 100 µM (inactive) | > 100 µM (inactive) | > 100 µM (inactive) | > 100 µM (inactive) | > 100 µM (inactive) |  | > 100 µM (inactive) | > 100 µM (inactive) | > 100 µM (inactive)
COc1ccc2c3c(c(C(=O)O)oc13)CCC2 | > 100 µM (inactive) | > 100 µM (inactive) |  | > 100 µM (inactive) | > 100 µM (inactive) |  | > 100 µM (inactive) | > 100 µM (inactive) | > 100 µM (inactive)
CCCS(=O)(=O)/C(=C(\c1ccc(Br)cc1)S(=O)(=O)CCC)c1ccc(Br)cc1 | > 10 µM (inactive) | > 10 µM (inactive) | > 10 µM (inactive) | > 10 µM (inactive) | > 10 µM (inactive) |  | > 10 µM (inactive) |  | > 10 µM (inactive)
O=C(Nc1nc2ncn(CC(COc3ccccc3)OC(=O)c3ccccc3)c2c(=O)[nH]1)c1ccccc1 (stereo not drawn) |  | > 100 µM (inactive) | > 100 µM (inactive) |  | > 100 µM (inactive) | > 100 µM (inactive) |  | > 100 µM (inactive) | > 100 µM (inactive)
CCOC(=O)C1=C(C)N(Cc2ccccc2)C(C)=C(C(=O)OCC)C1c1ccccc1O | 27.9 µM (inactive) | 32.7 µM (inactive) | 41 µM (inactive) | 26.5 µM (inactive) | 27.4 µM (inactive) | 22.5 µM (inactive) |  | 17.9 µM (inactive) | 21.5 µM (inactive)
O=C1c2ccccc2C2(Br)C(=O)c3ccccc3C12 (stereo not drawn) | > 100 µM (inactive) | 19.6 µM (inactive) | > 100 µM (inactive) | > 100 µM (inactive) | > 100 µM (inactive) | 10.4 µM (inactive) |  | > 100 µM (inactive) | 
c1ccc2c(c1)oc1ccc3nsnc3c12 | > 100 µM (inactive) | > 100 µM (inactive) | > 100 µM (inactive) | > 100 µM (inactive) | > 100 µM (inactive) | 46.9 µM (inactive) |  | > 100 µM (inactive) | 
CN(CCN(C)C(=O)CCn1ccc(=O)[nH]c1=O)C(=O)CCn1ccc(=O)[nH]c1=O |  | > 100 µM (inactive) | > 100 µM (inactive) | > 100 µM (inactive) | > 100 µM (inactive) |  | > 100 µM (inactive) | > 100 µM (inactive) | > 100 µM (inactive)
CCN(CC)CCNc1ccc2ncn3c4ccc(OC)cc4c(=O)c1c23 | 1.08 µM (active) | 1.67 µM (inactive) | 0.964 µM (active) | 2.46 µM (inactive) | 3.73 µM (inactive) | 1.61 µM (inactive) | 14 µM (inactive) | 11.5 µM (inactive) | 5.02 µM (inactive)
COc1cc(Br)c(/C=N\c2cccc3cc(OC)c(OC)cc23)cc1OC | 43.4 µM (inactive) | 43.4 µM (inactive) | 55.6 µM (inactive) | 25.9 µM (inactive) | 41.6 µM (inactive) | 50.5 µM (inactive) | 55.8 µM (inactive) | 17.2 µM (inactive) | 
O=C1CC(C[C@H](O)C2CCCCC2O)CC(=O)N1Cc1ccccc1 (stereo partly drawn) | > 100 µM (inactive) | > 100 µM (inactive) | > 100 µM (inactive) | > 100 µM (inactive) | > 100 µM (inactive) | > 100 µM (inactive) | > 100 µM (inactive) |  | > 100 µM (inactive)
C[N+]1(C)C/C(=C\c2ccccc2)C(=O)/C(=C/c2ccccc2)C1 | > 100 µM (inactive) | 37.5 µM (inactive) | > 100 µM (inactive) | 70.1 µM (inactive) | 32.7 µM (inactive) | > 100 µM (inactive) | > 100 µM (inactive) | 39.5 µM (inactive) | > 100 µM (inactive)
COC(=O)C1(C(C)C)CCc2c(OC)ccc(OC)c2C1=O (stereo not drawn) | > 100 µM (inactive) |  | > 100 µM (inactive) | > 100 µM (inactive) | > 100 µM (inactive) |  | > 100 µM (inactive) | > 100 µM (inactive) | > 100 µM (inactive)
NCCNCCNCc1c2ccccc2c(CNCCNCCN)c2ccccc12 | > 100 µM (inactive) |  | 41.4 µM (inactive) | 57.8 µM (inactive) | 59 µM (inactive) |  | 98.6 µM (inactive) | 46.9 µM (inactive) | 72.9 µM (inactive)
O=C1C(Cl)=C(N2CCN(CCOCCO)CC2)C(=O)c2ccccc21 |  | 16.9 µM (inactive) | 18 µM (inactive) | 1.79 µM (inactive) | 3.82 µM (inactive) |  | 15.3 µM (inactive) |  | 2.55 µM (inactive)
c1ccc(C2CC(c3ccc4ccccc4c3)=Nc3ccccc3S2)cc1 (stereo not drawn) | > 10 µM (inactive) | 21.3 µM (inactive) | 18.3 µM (inactive) | 14.5 µM (inactive) | 18.7 µM (inactive) | 24.3 µM (inactive) | 18.6 µM (inactive) |  | 17.4 µM (inactive)
CN(C)CCNC(=O)c1cccc2nc3ccc4ccccc4c3nc12 | 0.047 µM (active) | 0.0362 µM (active) |  |  | 0.0946 µM (active) | 0.0405 µM (active) | 0.138 µM (active) | 0.121 µM (active) | 
CC(=O)O/C(C)=C\C(=O)O/N=C(\N)c1ccc(C)cc1 | 18.9 µM (inactive) | 28.4 µM (inactive) | 33.7 µM (inactive) | 19.5 µM (inactive) |  | 22.5 µM (inactive) | 21.1 µM (inactive) | 18.8 µM (inactive) | 23.9 µM (inactive)
CSc1ccc2c(cc1=O)C(NC(=O)c1cc(O)c(OC(=O)O)c(O)c1)CCc1cc(O)c(O)c(O)c1-2 (stereo not drawn) | 18.5 µM (inactive) | 17 µM (inactive) | 24.9 µM (inactive) | 16.5 µM (inactive) | 13.6 µM (inactive) |  | 33.3 µM (inactive) | 15.2 µM (inactive) | 
COc1cc(C2c3cc4c(cc3[C@@H](Nc3ccc5c(c3)OCCO5)C3COC(=O)[C@H]23)OCO4)cc(OC)c1O (stereo partly drawn) | 0.692 µM (active) | 0.109 µM (active) | 0.745 µM (active) | 3.44 µM (inactive) | 0.622 µM (active) | 0.273 µM (active) | 1.84 µM (inactive) | 0.303 µM (active) | 0.525 µM (active)
